According to patent US20030114519A1, “Pharmaceutical combination of bicalutamide and anastrozole for providing an anti-androgenic effect and aromatase inhibition” (priority 2002, published 2003):

How the values were obtained:
total testosterone = conditions: bicalutamide single agent therapy, humans; cited from earlier work
[1] = system: free testosterone concentration; conditions: after 24 weeks of daily 150 mg CASODEX alone; prostate cancer; cited from earlier work
[2] = system: testosterone, LH, oestradiol, FSH levels; conditions: cited from earlier work

Experimental for free testosterone levels: The following clinical trial was performed to determine the effect of the administration of CASODEX™ together with ARIMIDEX™ on free testosterone levels in healthy male volunteers over a 6 week period.
Dosage: The CASODEX™ was administered daily at a dose of 150 mg and the ARIMIDEX™ was administered daily at a dose of 1 mg. All treatments were in tablet form and taken once daily. Daily treatment with CASODEX™ was for 6 weeks, and with ARIMIDEX™ for the final 2 weeks of this period. The treatment periods were selected as the minimum time to attain steady-state plasma concentrations for the drugs.
Key Assessment: Free testosterone concentrations were measured during the course of the trial.

Compound	Increase in mean free testosterone concentration (free testosterone levels; CASODEX alone, end of the treatment period (4 weeks))	Free testosterone, ratio to Day 1 (free testosterone levels; Day 29, CASODEX 150 mg daily alone)	Free testosterone concentration, gmean (free testosterone levels; Day 29, CASODEX 150 mg daily alone (up to week 4), n=7)	Change in basal level of total testosterone (total testosterone)	Increase in mean free testosterone concentration [1]	Effect on mean serum testosterone, oestradiol, LH levels, LH pulse frequency and amplitude ([2]; 13 normal men, 6 week period (Spijkstra et al))	Effect on basal serum levels of LH, oestradiol and testosterone ([2]; administration to men (Lewis-Jones et al))	Effect on testosterone and LH ([2]; intake in adult men (Comhaire et al))	Effect on basal LH, FSH and testosterone levels ([2]; three months' treatment, normogonadotrophic oligozoospermic men (van Bergeijk et al))
CC(O)(CS(=O)(=O)c1ccc(F)cc1)C(=O)Nc1ccc(C#N)c(C(F)(F)F)c1 (stereo not drawn) [CASODEX, 4′-cyano-α′,α′, α′-trifluoro-3-(4-fluorophenylsulphonyl)-2-hydroxy-2-methylpropiono-m-toluidide]	58%	1.58	0.076 nmol/1	approximate doubling	57%				
CC/C(=C(\c1ccccc1)c1ccc(OCCN(C)C)cc1)c1ccccc1 [tamoxifen]						An increase	elevates the basal serum levels	increase testosterone and LH	stimulated basal LH, FSH and testosterone levels
